Results on 6 compounds are retold here after publication PMC8516514 (Clinical Infectious Diseases: An Official Publication of …, 2020).

Values joined by “and” are separate entries in the source; they are usually repeats but may differ in a detail not shown here. Equal entries are not always repeated.

For data set [1] the following is noted: baseline ALT 27–45 IU/mL; cited from earlier work.
For data set [2], the system named is HBV. Put plainly: Change in serum HBsAg, phase 1b study in patients with chronic HBV infection. The format is in vivo, human.
Another data set deals with HBV in HepG2.2.15 cell. The following applies: cited from earlier work.
The subject of data set [3] is HBV.
The nature of data set [4]: Plasma pharmacokinetics of GLS4 in patients with chronic HBV infection. The format is in vivo, human. The following applies: for AUC0–24 / AUC0–t / Cmax / Ctrough / t1/2 / Df (degree of fluctuation): mean (CV).
Data set [5] concerns HBV. Put plainly: Change in serum HBV DNA, phase 1b study in patients with chronic HBV infection. The data set is classed as in vivo, human.
The subject of data set [6] is HBV. Description: Change in serum HBeAg, phase 1b study in patients with chronic HBV infection. The data set is classed as in vivo, human.
Data set [7] can be described thus: Safety and tolerability in patients with chronic HBV infection. The format is in vivo, human. Particulars: for effect of silibinin and glutathione treatment on ALT flares: subjects with ALT flares, decline in ALT level.
In data set [8] the test system is HBV. Description: Change in serum HBV pgRNA, phase 1b study in patients with chronic HBV infection. The format is in vivo, human.
The nature of data set [9]: Phase Ia pharmacokinetics of GLS4 in healthy subjects. The data set is classed as in vivo, human. The following applies: for mean steady-state Cmin: unpublished observations.
Data set [10] deals with HBV. Description: Change in serum HBcrAg, phase 1b study in patients with chronic HBV infection. The data set is classed as in vivo, human.
For data set [11] the following is noted: preclinical study in dogs; cited from earlier work.
Data set [12] in a line: Phase Ia tolerability in healthy subjects. The format is in vivo, human. The following applies: 9 days, unpublished observations.
For data set [13], the system named is HBV. The following applies: after NVR 3–778 treatment; cited from earlier work.
The test system of data set [14] is HBV. The following applies: cited from earlier work.
[15] abbreviates: cohort A: GLS4 120 mg/day + ritonavir 100 mg/day.
Setting [16] is: cohort B: GLS4 240 mg/day + ritonavir 100 mg/day.
Setting [17] is: cohort A (GLS4 120 mg/day + ritonavir 100 mg/day), Day 1 (24 Hours).
The mark [18] stands for this setting: cohort A (GLS4 120 mg/day + ritonavir 100 mg/day), Day 28 (24 Hours).
[19] abbreviates: cohort A (GLS4 120 mg/day + ritonavir 100 mg/day), Day 28 (120 Hours).
Setting [20] is: cohort B (GLS4 240 mg/day + ritonavir 100 mg/day), Day 1 (24 Hours).
Where [21] appears, read: cohort B (GLS4 240 mg/day + ritonavir 100 mg/day), Day 28 (24 Hours).
The mark [22] stands for this setting: cohort B (GLS4 240 mg/day + ritonavir 100 mg/day), Day 28 (120 Hours).
[23] abbreviates: cohort A: GLS4 120 mg/day + ritonavir 100 mg/day, n=8.
The mark [24] stands for this setting: cohort B: GLS4 240 mg/day + ritonavir 100 mg/day, n=8.
The mark [25] stands for this setting: cohort C: entecavir 0.5 mg/day, n=8.

Turning to `O=C(NCc1cnc(C(F)(F)F)s1)c1ccc2c(c1)NC(=O)c1ccccc1S2(=O)=O` [ABI-H0731], the “ALT flare in phase I clinical study” value in [1] was “without ALT flare”.

For the compound `CCOC(=O)C1=C(CN2CCOCC2)NC(c2nccs2)=NC1c1ccc(F)cc1Br` (centres unmarked) [GLS4], the “mean decline in HBsAg after 28 days of treatment” value with HBV [2] (setting [15]) is −0.06 log10 IU/mL; in the data set with HBV [2] (setting [16]), −0.14 log10 IU/mL. In the data set on HBV in HepG2.2.15 cell (HepG2.2.15 cell, after correction with Human plasma protein binding), the “90% effective concentration (EC90)” value was 0.0558 µg/mL. For the same compound, the “anti-HBV activity in vitro compared with Bay 41–4109” value in the data set on HBV in HepG2.2.15 cell (in vitro) is on record as “better anti-HBV activity in vitro than Bay 41–4109”. For the same compound, the “efficacy in patients resistant to lamivudine or adefovir dipivoxil treatment” value in the data set with HBV [3] (cohort A: patient 013, cohort B: patient 020) was “effective”. The “GLS4 resistance among patients” value in the data set on HBV [3] (cohorts A and B, 28 days of treatment) is “not observed”. Moreover, the “Median Tmax (minimum–maximum)” value is recorded as 3 (1.5,4) hours in data set [4] (setting [17]); 3 (0.5, 4) hours in data set [4] (setting [18]); 3 (0.5, 4) hours in data set [4] (setting [19]); 3.5 (2, 4) hours in [4] (setting [20]); 3 (2, 4) hours in [4] (setting [21]); 3 (2, 4) hours in [4] (setting [22]). Further, the “AUC0–24” value is 4268 (27) ng × hours/mL in [4] (setting [17]), 7871 (56) ng × hours/mL in data set [4] (setting [18]), 7871 (56) ng × hours/mL in [4] (setting [19]) and 8055 (34) ng × hours/mL in data set [4] (setting [20]). The “AUC0–t” value in data set [4] (setting [17]) is listed as 4268 (27) ng × hours/mL; in [4] (setting [18]), 7871(56) ng × hours/mL; in [4] (setting [20]), 8055 (34) ng × hours/mL. The Cmax in [4] (setting [17]) was 885 (27) ng/mL; in data set [4] (setting [18]), 865 (66) ng/mL; in data set [4] (setting [19]), 865 (66) ng/mL; in data set [4] (setting [20]), 1447 (39) ng/mL; in data set [4] (setting [21]), 1461 (24) ng/mL; in data set [4] (setting [22]), 1461 (24) ng/mL. Besides, the Ctrough in [4] (setting [18]) was 218(59) ng/mL; in [4] (setting [21]), 205(63) ng/mL. Moreover, the t1/2 is 32.1(11.7) hours in data set [4] (setting [18]); 64.2 (14.8) hours in [4] (setting [19]); 10.6 (3.3) hours in [4] (setting [20]); 16.3(7.6) hours in [4] (setting [21]); 67.3 (24.2) hours in data set [4] (setting [22]). Moreover, the “Df (degree of fluctuation)” value in data set [4] (setting [19]) is 204 (36) %; in [4] (setting [22]), 265 (33) %. Further, the “accumulation rate with AUC0–24 (day 28 vs day 1)” value in data set [4] (cohorts A and B) is recorded as 1.6–2.0. In addition, in data set [4] (cohorts A and B), the “accumulation rate with Cmax (day 28 vs day 1)” value is recorded as 1.1–1.2. Besides, the accumulation rate in data set [4] (cohorts A and B, day 28 vs day 1, AUC0–24 or Cmax) is 1.1–2.0. The “time to maximum GLS4 concentration (Tmax)” value in data set [4] (cohorts A and B, first and last dose (days 1 and 28), with ritonavir) was 3–3.5 hours and ~ 3 hours. For the same compound, the “mean trough concentration (Ctrough) of GLS4” value in data set [4] (cohorts A and B, steady state, with ritonavir 100 mg/day) lay within 205 to 218 ng/mL. Further, the “t1/2 of GLS4 when combined with ritonavir” value in [4] (patients, cohorts A and B) is 64.2 to 67.3 h. Further, in the data set on HBV [5] (cohort A (GLS4 120 mg/day + ritonavir 100 mg/day), patients 003, 005 and 022), the “decline in HBV DNA levels in patients with poor response” value was less than 0.5 log10 IU/mL. The “mean decline in HBV DNA after 28 days of treatment” value in the data set with HBV [5] (setting [15]) is reported as −1.42 log10 IU/mL; with HBV [5] (setting [16]), −2.13 log10 IU/mL. Moreover, the “mean change in HBV DNA following GLS4 treatment” value in the data set with HBV [5] (cohorts A and B (GLS4 120 or 240 mg/day + ritonavir 100 mg/day, 28 days)) was −1.42 to −2.13 log10 IU/mL. In addition, the “mean decline in HBeAg after 28 days of treatment” value with HBV [6] (setting [15]) is recorded as −0.25 log10 IU/mL; in the data set on HBV [6] (setting [16]) it was −0.30 log10 IU/mL. Besides, the “tolerability in patients with chronic HBV infection” value in data set [7] (120 mg GLS4 (+ ritonavir 100 mg), 28 days) is given as “tolerated”. Moreover, the “frequency of grade 3–4 adverse reactions” value in data set [7] (setting [23]) is reported as 2; in [7] (setting [24]), 7. For the same compound, the results for the “patients who experienced an adverse reaction” value in [7] (setting [23]) and in [7] (setting [24]) were 5 and 6, respectively. In addition, the “patients withdrawn due to ALT flare” value in data set [7] (setting [23]) was 1 and 1/8; in [7] (setting [24]), 2 and 2/8. Further, the “subjects with alanine aminotransferase flare” value was 2 and 2/8 in [7] (setting [23]); 3 and 3/8 in data set [7] (setting [24]). In data set [7] (setting [24]), the “presence of SAEs” value amounted to 1. Further, the “mean decline in pgRNA after 28 days of treatment” value is given as −0.75 log10 copies/mL in the data set with HBV [8] (setting [15]) and −1.78 log10 copies/mL in the data set with HBV [8] (setting [16]). Also, the “mean steady-state Cmin” value in [9] (GLS4 120 mg/day + ritonavir 100 mg/day for 9 days) is listed as 187.9 ng/mL; in [9] (GLS4 240 mg/day + ritonavir 100 mg/day for 9 days), 300.7 ng/mL. Also, in [9] (without ritonavir, data not shown), the “t1/2 of GLS4 monotherapy” value lay within 1.09 to 15.8 h. For the same compound, the “mean decline in HBcrAg after 28 days of treatment” value with HBV [10] (setting [15]) is −0.23 log10 U/mL; in the data set on HBV [10] (setting [16]), −0.5 log10 U/mL and −0.50 log10 U/mL. Further, the tolerability result in data set [11] is on record as “well tolerated”. Moreover, the “tolerability of GLS4 (120 or 240 mg) in combination with 100 mg ritonavir” value in data set [12] is “tolerated”.

Regarding `O=C(Nc1cc(F)c(F)c(F)c1)c1ccc(F)c(S(=O)(=O)N2CCC(O)CC2)c1` [NVR 3–778], in the data set with HBV [13], the “mean change in HBV DNA” value is given as −1.43 log10 IU/mL, the “mean decline in HBeAg” value is −0.09 log10 IU/mL and the “mean decline in HBsAg” value was −0.02 log10 IU/mL.

For `C=C1[C@H](CO)[C@@H](O)C[C@@H]1n1cnc2c(=O)[nH]c(N)nc21` [entecavir, reference compound], the “mean decline in HBsAg after 28 days of treatment” value with HBV [2] (cohort C: entecavir 0.5 mg/day) is −0.33 log10 IU/mL. In addition, in the data set with HBV [5] (cohort C: entecavir 0.5 mg/day), the “mean decline in HBV DNA after 28 days of treatment” value is on record as −3.5 log10 IU/mL. For the same compound, in [7] (setting [25]), the “patients who experienced an adverse reaction” value was 7, the “patients withdrawn due to ALT flare” value was found to be 1 and the “subjects with alanine aminotransferase flare” value worked out at 3. Moreover, the “mean decline in pgRNA after 28 days of treatment” value in the data set with HBV [8] (cohort C: entecavir 0.5 mg/day) is reported as −0.96 log10 copies/mL. The “mean decline in HBcrAg after 28 days of treatment” value in the data set on HBV [10] (cohort C: entecavir 0.5 mg/day) is −0.44 log10 U/mL.

Regarding `N[C@@H](CCC(=O)N[C@@H](CS)C(=O)NCC(=O)O)C(=O)O` [glutathione, reference compound], the antiviral effects result with HBV [14] is given as “no antiviral effects”. For the same compound, the “effect of silibinin and glutathione treatment on ALT flares” value in data set [7] is on record as “effective in reducing ALT flares”.

As to `COc1cc(C2Oc3cc([C@H]4Oc5cc(O)cc(O)c5C(=O)[C@@H]4O)ccc3OC2CO)ccc1O` (some centres unmarked) [silibinin, reference compound], the antiviral effects result in the data set with HBV [14] is reported as “no antiviral effects”. Besides, the “effect of silibinin and glutathione treatment on ALT flares” value in data set [7] is recorded as “effective in reducing ALT flares”.
